Source: ChEMBL document CHEMBL6153174, “Design and Synthesis of Novel Deazapurine DNMT 1 Inhibitors with In Vivo Efficacy in DLBCL” (J Med Chem, 2025)

Legend:
U-937 = experiment: Antiproliferative activity against human U-937 cells assessed as inhibition of cell viability measured after 72 hrs by MTT assay; format: functional, cell-based; conditions: U-937, 72 h
MV4-11 = experiment: Antiproliferative activity against human MV4-11 cells assessed as inhibition of cell viability measured after 72 hrs by MTT assay; format: functional, cell-based; conditions: MV4-11, 72 h
MDA-MB-231 = experiment: Antiproliferative activity against human MDA-MB-231 cells assessed as inhibition of cell viability measured after 72 hrs by MTT assay; format: functional, cell-based; conditions: MDA-MB-231, 72 h
HeLa = experiment: Antiproliferative activity against human HeLa cells assessed as inhibition of cell viability measured after 72 hrs by MTT assay; format: functional, cell-based
HT-29 = experiment: Antiproliferative activity against human HT-29 cells assessed as inhibition of cell viability measured after 72 hrs by MTT assay; format: functional, cell-based; conditions: HT-29, 72 h
HCT-116 = experiment: Antiproliferative activity against human HCT-116 cells assessed as inhibition of cell viability measured after 72 hrs by MTT assay; format: functional, cell-based; conditions: HCT-116, 72 h
A549 = experiment: Antiproliferative activity against human A549 cells assessed as inhibition of cell viability measured after 72 hrs by MTT assay; format: functional, cell-based; conditions: A549, 72 h
NCI-H1299 = experiment: Antiproliferative activity against human NCI-H1299 cells assessed as inhibition of cell viability measured after 72 hrs by MTT assay; format: functional, cell-based; conditions: NCI-H1299, 72 h
MOLM-13 = experiment: Antiproliferative activity against human MOLM-13 cells assessed as inhibition of cell viability measured after 72 hrs by MTT assay; format: functional, cell-based; conditions: MOLM-13, 72 h
[1] = molecular target: T1, DNA (cytosine-5)-methyltransferase 3B (Homo sapiens, UniProt Q9UBC3); experiment: Inhibition of DNMT3B (unknown origin) preincubated for 15 mins followed by substrate and [3H-SAM] addition and measured after 60 mins by microbeta analysis
THP-1 = experiment: Antiproliferative activity against human THP-1 cells assessed as inhibition of cell viability measured after 72 hrs by MTT assay; format: functional, cell-based; conditions: THP-1, 72 h
[2] = molecular target: T2, DNA (cytosine-5)-methyltransferase 1 (Homo sapiens, UniProt P26358); experiment: Inhibition of DNMT1 (unknown origin) at 5 uM preincubated for 15 mins followed by substrate and [3H-SAM] addition and measured after 60 mins by microbeta analysis relative to control; conditions: time 75.0 min
T2 sequence (P26358 whole entry): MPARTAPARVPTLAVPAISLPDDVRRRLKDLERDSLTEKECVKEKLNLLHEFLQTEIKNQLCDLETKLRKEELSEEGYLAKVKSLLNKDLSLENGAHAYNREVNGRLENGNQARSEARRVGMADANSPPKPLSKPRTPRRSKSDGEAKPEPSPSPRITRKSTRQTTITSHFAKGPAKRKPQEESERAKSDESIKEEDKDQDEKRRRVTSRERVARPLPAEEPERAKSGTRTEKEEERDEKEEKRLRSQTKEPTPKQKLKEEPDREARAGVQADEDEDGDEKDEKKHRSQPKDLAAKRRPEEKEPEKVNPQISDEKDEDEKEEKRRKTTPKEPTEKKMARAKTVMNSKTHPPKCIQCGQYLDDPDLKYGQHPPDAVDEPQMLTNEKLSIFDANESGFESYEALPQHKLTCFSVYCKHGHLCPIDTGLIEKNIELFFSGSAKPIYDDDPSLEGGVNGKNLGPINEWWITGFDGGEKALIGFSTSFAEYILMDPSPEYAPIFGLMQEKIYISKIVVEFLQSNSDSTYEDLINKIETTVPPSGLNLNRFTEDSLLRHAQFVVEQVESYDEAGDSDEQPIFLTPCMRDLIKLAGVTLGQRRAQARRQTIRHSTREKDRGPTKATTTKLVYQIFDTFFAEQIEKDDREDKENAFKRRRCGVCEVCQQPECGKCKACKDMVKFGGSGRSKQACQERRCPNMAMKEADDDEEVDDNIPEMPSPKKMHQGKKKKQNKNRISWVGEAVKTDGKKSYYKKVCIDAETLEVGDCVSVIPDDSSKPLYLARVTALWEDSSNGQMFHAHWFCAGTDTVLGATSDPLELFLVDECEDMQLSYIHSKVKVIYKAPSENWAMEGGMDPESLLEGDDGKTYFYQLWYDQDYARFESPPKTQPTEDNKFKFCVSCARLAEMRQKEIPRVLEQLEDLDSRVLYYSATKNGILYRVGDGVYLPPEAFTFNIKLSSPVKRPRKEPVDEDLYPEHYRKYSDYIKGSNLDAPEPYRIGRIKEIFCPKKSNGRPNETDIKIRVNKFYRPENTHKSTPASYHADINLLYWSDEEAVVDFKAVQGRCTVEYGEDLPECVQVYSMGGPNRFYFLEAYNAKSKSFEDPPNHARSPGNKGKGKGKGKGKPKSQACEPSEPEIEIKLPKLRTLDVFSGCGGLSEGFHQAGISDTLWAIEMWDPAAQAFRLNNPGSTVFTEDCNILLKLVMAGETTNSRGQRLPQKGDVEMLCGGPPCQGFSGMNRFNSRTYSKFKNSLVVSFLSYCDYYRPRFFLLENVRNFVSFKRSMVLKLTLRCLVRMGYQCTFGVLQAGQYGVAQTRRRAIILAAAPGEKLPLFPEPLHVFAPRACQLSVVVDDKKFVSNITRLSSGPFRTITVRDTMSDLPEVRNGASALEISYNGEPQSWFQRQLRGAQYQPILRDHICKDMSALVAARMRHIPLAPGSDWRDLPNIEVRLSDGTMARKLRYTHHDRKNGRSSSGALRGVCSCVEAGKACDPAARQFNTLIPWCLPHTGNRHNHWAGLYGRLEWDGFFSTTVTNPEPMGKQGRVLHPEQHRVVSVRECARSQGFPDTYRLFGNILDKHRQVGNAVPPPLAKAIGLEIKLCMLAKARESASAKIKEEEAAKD

RPMI-8226 = experiment: Antiproliferative activity against human RPMI-8226 cells assessed as inhibition of cell viability measured after 72 hrs by MTT assay; format: functional, cell-based; conditions: RPMI-8226, 72 h
[3] = molecular target: T2, DNA (cytosine-5)-methyltransferase 1; experiment: Inhibition of DNMT1 (unknown origin) at 1 uM preincubated for 15 mins followed by substrate and [3H-SAM] addition and measured after 60 mins by microbeta analysis relative to control; conditions: time 75.0 min
HepG2 = experiment: Antiproliferative activity against human HepG2 cells assessed as inhibition of cell viability measured after 72 hrs by MTT assay; format: functional, cell-based; conditions: HepG2, 72 h
[4] = Antiproliferative activity against human NK-YS cells assessed as inhibition of cell viability measured after 72 hrs by MTT assay; format: functional, cell-based
U2932 = experiment: Antiproliferative activity against human U2932 cells assessed as inhibition of cell viability measured after 72 hrs by MTT assay; format: functional, cell-based; conditions: U2932, 72 h
Jurkat = experiment: Antiproliferative activity against human Jurkat cells assessed as inhibition of cell viability measured after 72 hrs by MTT assay; format: functional, cell-based
DOHH-2 = experiment: Antiproliferative activity against human DOHH-2 cells assessed as inhibition of cell viability measured after 72 hrs by MTT assay; format: functional, cell-based; conditions: DOHH-2, 72 h
TMD8 = experiment: Antiproliferative activity against human TMD8 cells assessed as inhibition of cell viability measured after 72 hrs by MTT assay; format: functional, cell-based; conditions: TMD8, 72 h
[5] = Volume of distribution at steady state in Sprague-Dawley rat at 10 mg/kg, po measured upto 24 hrs by LC/MS/MS analysis; format: ADME, organism-based; conditions: in vivo
[6] = molecular target: T3, Histone-lysine N-methyltransferase EHMT2 (Homo sapiens) (UniProt Q96KQ7); experiment: Inhibition of G9a (unknown origin) at 5 uM preincubated for 15 mins followed by substrate and [3H-SAM] addition and measured after 60 mins by microbeta analysis relative to control; conditions: time 75.0 min
T3 sequence (whole entry): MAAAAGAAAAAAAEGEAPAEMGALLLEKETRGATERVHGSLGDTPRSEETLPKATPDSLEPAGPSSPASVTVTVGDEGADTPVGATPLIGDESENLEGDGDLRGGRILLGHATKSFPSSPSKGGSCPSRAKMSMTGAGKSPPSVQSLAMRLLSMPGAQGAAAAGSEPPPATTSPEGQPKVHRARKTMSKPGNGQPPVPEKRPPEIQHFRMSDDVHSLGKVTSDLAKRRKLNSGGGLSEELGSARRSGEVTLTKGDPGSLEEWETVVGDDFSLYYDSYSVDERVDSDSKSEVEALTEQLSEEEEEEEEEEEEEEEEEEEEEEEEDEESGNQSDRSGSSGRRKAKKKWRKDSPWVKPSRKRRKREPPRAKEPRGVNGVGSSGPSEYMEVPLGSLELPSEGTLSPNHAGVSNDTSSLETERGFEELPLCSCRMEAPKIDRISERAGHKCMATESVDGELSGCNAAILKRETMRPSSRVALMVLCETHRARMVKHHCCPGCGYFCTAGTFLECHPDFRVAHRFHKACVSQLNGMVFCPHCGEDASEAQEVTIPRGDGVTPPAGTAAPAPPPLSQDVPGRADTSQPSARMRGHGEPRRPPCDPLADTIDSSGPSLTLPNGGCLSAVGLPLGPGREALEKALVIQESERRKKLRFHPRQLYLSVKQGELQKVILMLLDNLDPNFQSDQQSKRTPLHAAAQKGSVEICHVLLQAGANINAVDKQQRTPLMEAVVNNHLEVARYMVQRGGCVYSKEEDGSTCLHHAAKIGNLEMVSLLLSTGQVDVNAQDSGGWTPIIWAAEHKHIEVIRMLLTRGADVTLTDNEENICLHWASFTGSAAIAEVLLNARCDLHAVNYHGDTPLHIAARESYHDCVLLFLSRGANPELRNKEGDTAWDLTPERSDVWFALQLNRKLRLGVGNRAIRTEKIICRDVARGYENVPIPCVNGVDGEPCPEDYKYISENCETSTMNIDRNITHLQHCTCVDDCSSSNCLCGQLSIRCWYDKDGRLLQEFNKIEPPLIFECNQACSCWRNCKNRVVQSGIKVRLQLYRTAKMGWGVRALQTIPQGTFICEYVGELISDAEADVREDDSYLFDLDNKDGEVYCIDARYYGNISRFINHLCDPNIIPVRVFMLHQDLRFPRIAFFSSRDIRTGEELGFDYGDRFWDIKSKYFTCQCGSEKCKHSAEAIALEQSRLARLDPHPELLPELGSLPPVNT

[7] = Cmax in Sprague-Dawley rat at 10 mg/kg, po measured upto 24 hrs by LC/MS/MS analysis; format: ADME, organism-based; conditions: in vivo
[8] = molecular target: T2, DNA (cytosine-5)-methyltransferase 1; experiment: Inhibition of DNMT1 (unknown origin) preincubated for 15 mins followed by substrate and [3H-SAM] addition and measured after 60 mins by microbeta analysis
[9] = Cmax in Sprague-Dawley rat at 10 mg/kg, iv measured upto 24 hrs by LC/MS/MS analysis; format: ADME, organism-based; conditions: in vivo
[10] = Volume of distribution at steady state in Sprague-Dawley rat at 10 mg/kg, iv measured upto 24 hrs by LC/MS/MS analysis; format: ADME, organism-based; conditions: in vivo, read-out: Vdss
[11] = molecular target: T4, DNA (cytosine-5)-methyltransferase 3A (Homo sapiens, UniProt Q9Y6K1); experiment: Inhibition of DNMT3A (unknown origin) at 5 uM preincubated for 15 mins followed by substrate and [3H-SAM] addition and measured after 60 mins by microbeta analysis relative to control; conditions: time 75.0 min
T4 sequence (Q9Y6K1 whole entry, looked up): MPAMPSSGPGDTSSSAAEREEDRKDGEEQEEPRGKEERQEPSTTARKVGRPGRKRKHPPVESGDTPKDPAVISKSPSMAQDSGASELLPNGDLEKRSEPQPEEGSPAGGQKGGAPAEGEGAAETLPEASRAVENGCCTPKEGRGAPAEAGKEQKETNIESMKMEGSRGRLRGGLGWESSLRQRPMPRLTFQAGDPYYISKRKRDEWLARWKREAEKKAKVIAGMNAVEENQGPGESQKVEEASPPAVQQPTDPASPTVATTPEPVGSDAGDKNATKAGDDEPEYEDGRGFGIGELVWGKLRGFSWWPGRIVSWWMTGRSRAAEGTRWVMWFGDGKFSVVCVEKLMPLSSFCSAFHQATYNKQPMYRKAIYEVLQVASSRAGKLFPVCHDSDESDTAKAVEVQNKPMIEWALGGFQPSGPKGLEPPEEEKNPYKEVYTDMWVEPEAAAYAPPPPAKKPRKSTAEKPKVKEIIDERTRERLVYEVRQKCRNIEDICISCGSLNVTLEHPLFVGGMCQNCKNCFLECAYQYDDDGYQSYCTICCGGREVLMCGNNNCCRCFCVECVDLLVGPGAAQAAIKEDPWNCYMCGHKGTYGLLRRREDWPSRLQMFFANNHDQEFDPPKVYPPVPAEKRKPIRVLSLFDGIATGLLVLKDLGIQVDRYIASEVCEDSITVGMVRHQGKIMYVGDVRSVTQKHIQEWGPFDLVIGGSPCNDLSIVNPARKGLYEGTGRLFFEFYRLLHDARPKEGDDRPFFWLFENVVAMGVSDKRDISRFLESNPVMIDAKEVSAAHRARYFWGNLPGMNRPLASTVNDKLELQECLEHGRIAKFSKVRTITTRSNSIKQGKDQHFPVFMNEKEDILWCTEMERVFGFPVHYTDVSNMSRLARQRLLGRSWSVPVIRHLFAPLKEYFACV

[12] = Apparent clearance during terminal phase in Sprague-Dawley rat at 10 mg/kg, po measured upto 24 hrs by LC/MS/MS analysis; format: ADME, organism-based; conditions: in vivo, read-out: CLz/F (converted)
[13] = Terminal elimination half life in Sprague-Dawley rat at 10 mg/kg, po measured upto 24 hrs by LC/MS/MS analysis; format: ADME, organism-based; conditions: in vivo, read-out: beta t1/2 (converted)
[14] = molecular target: T1, DNA (cytosine-5)-methyltransferase 3B; experiment: Inhibition of DNMT3B (unknown origin) at 5 uM preincubated for 15 mins followed by substrate and [3H-SAM] addition and measured after 60 mins by microbeta analysis relative to control; conditions: time 75.0 min
[15] = AUC (0 to t) in Sprague-Dawley rat at 10 mg/kg, po measured upto 24 hrs by LC/MS/MS analysis; format: ADME, organism-based; conditions: in vivo, po, 10 mg/kg, 24 h
[16] = Terminal elimination half life in Sprague-Dawley rat at 10 mg/kg, iv measured upto 24 hrs by LC/MS/MS analysis; format: ADME, organism-based; conditions: in vivo, read-out: beta t1/2 (converted)
[17] = AUC (0 to t) in Sprague-Dawley rat at 10 mg/kg, iv measured upto 24 hrs by LC/MS/MS analysis; format: ADME, organism-based; conditions: in vivo, iv, 10 mg/kg, 24 h
[18] = Clearance in Sprague-Dawley rat at 10 mg/kg, iv measured upto 24 hrs by LC/MS/MS analysis; format: ADME, organism-based; conditions: in vivo
[19] = molecular target: T4, DNA (cytosine-5)-methyltransferase 3A; experiment: Inhibition of DNMT3A (unknown origin) preincubated for 15 mins followed by substrate and [3H-SAM] addition and measured after 60 mins by microbeta analysis
[20] = molecular target: T5, Histone-lysine N-methyltransferase EHMT2 (Homo sapiens, UniProt Q96KQ7); experiment: Inhibition of G9a (unknown origin) preincubated for 15 mins followed by substrate and [3H-SAM] addition and measured after 60 mins by microbeta analysis
T5 sequence (Q96KQ7 whole entry): T3 sequence (whole entry)

[21] = Oral bioavailability in Sprague-Dawley rat at 10 mg/kg measured upto 24 hrs by LC/MS/MS analysis; format: ADME, organism-based; conditions: in vivo, po, 10 mg/kg, 24 h
[22] = Antitumor activity against human TMD8 cells harbouring […] xenografted in mouse model assessed as tumor inhibition rate at 12.5 mg/kg, po QD relative to control; format: functional; design: scale not given: the % may be the effect or the level left
[23] = Antitumor activity against human TMD8 cells harbouring TP53 mutant xenografted in mouse model assessed as tumor inhibition rate at 12.5 mg/kg, po QD relative to control; format: functional; design: scale not given: the % may be the effect or the level left
[24] = Antitumor activity against human TMD8 cells harbouring TP53 mutant xenografted in mouse model assessed as body weight change at 12.5 mg/kg, po QD relative to control; format: functional
[25] = Antitumor activity against human TMD8 cells harbouring […] xenografted in mouse model assessed as body weight change at 12.5 mg/kg, po QD relative to control; format: functional

Compound | IC50 (U-937) [µM] | IC50 (MV4-11) [µM] | IC50 [1] [µM] | inhibition [2] [%] | inhibition [6] [%] | IC50 [8] [µM] | inhibition [11] [%] | inhibition [14] [%] | IC50 [19] [µM] | IC50 [20] [µM] | also measured
Cc1cc(Nc2ccc(NC(=O)c3ccc(Nc4ccnc5ccccc45)cc3)cc2)nc(N)n1 | 4.12 | 0.98 | 1.91 | 3.4 | – | – | – | – | – | – | IC50 (MDA-MB-231): 5.39 µM; IC50 (HeLa): 21.6 µM; IC50 (HT-29): 0.49 µM; IC50 (HCT-116): 0.82 µM; IC50 (A549): 9.5 µM; IC50 (NCI-H1299): 12.2 µM; IC50 (MOLM-13): 1.19 µM; IC50 (THP-1): 2.47 µM; IC50 (RPMI-8226): 1.34 µM; inhibition [3]: 77%; IC50 (HepG2): 11.6 µM
CCc1c(C#N)c(SC(C(N)=O)c2ccccc2)nc(N2CCC(N)CC2)c1C#N (stereo not given) | – | – | – | – | – | – | – | – | – | – | IC50 [4]: 16.7 µM; IC50 (U2932): 28.9 µM; IC50 (Jurkat): 19.8 µM; IC50 (DOHH-2): 11.1 µM; IC50 (TMD8): 21.4 µM
CN1CCC(Nc2nc(-c3ccc(C#N)c(F)c3)nc3c2ccn3CCCN2CCCC2)CC1 | 1.2 | 2.05 | 12.4 | 82 | -1.3 | 1.22 | 11 | 2.3 | 10.9 | > 20 | Vdss [5]: 673.5 L/kg; Cmax [7]: 29.3 ng/mL; Cmax [9]: 698 ng/mL; Vd [10]: 22.4 L/kg; CL/F [12]: 843 mL/min/kg; half-life [13]: 12.3 h; AUCt [15]: 302.6 ng·h/mL; half-life [16]: 12.1 h; AUCt [17]: 2775.5 ng·h/mL; clearance [18]: 21.7 mL/min/kg; F [21]: 5.4%
COc1ccc(-c2nc(NC3CCN(C)CC3)c3ccn(CCCN4CCCC4)c3n2)cn1 | 4.53 | 10.2 | > 20 | 49 | 1 | 1.9 | 15 | 1.2 | 18.3 | > 20 | –
Nc1cc(F)ccc1NC(=O)c1ccc(CNC(=O)/C=C/c2cccnc2)cc1 [TUCIDINOSTAT] | – | – | – | – | – | – | – | – | – | – | Activity [22]: 51.5%; Activity [23]: 61%; Activity [24]: -2.3%; Activity [25]: 2.5%
CN1CCC(Nc2nc(-c3ccc(N)nc3)nc3c2ccn3CCCN2CCCC2)CC1 | 26.8 | 18.3 | > 20 | 52 | -1.1 | 1.62 | 17 | 0.6 | 16.7 | > 20 | –
